Measured values taken from patent US8796285B2, “Pyrazolo [1,5-a]-pyrimidones derivatives and pharmaceutical compositions and uses thereof” (Hebei Medical University, priority 2009, dated 2014).
Where two headings read alike, the source gives them in different places.

Legend:
[1] = molecular target: KCNQ4 potassium ion channel (Homo sapiens, UniProt P56696); test: High throughput atomic absorption Rb+ efflux testing, CHO cell of KCNQ4 channel; format: cell-based; conditions: for EC50: CHO cell of KCNQ4 channel
Text: Atomic absorption Rb^+ efflux testing is a fast and safe selection method for high throughput potassium channel moderator, and is characterized in that the activity of the ion channel and the control effect of the opener are directly reflected. Rb and K have similar atomic size, and potassium ion channel is permeable to Rb^+. By testing concentration of the Rb^+ efflux, a status of the potassium channel, which is an open status or a close status, can be determined. Rb has specific absorption at 780 nm, and Rb^+ concentration can be determined by atomic absorption spectroscopy. Accordingly, analysis method of atomic absorption spectroscopy can be used to select the opener/inhibitor of potassium channel through high throughput of Rb^+ efflux.
Stable cell transfer of CHO cell of KCNQ4 channel at log phase and inoculate in 96-well culture plate at a density of 2×10^4 unit/well. Each concentration has a triplicate-hole setting, and a control setting with solvent of corresponding concentration. Allow growth against the well-wall overnight, then discard the culture medium, add 200 μl loading buffer which contains RbCl, and culture in 5% CO2 at 37° C. for 3 hours. Then remove the loading buffer and wash with wash buffer for 3 times. Screen for the KCNQ opener, dilute testing compound with depolarization buffer, add 200 μl of the above solvent into the cell and allow reaction for 10 minutes. Incubate for 10 minutes, then carefully draw 200 μl supernatant to another 96-well culture plate, use ICR8000 atomic absorption spectrometry to determine the Rb^+ atomic absorption at 780 nm. Based on the equation Fsupern=(Rb_supern/cpd/Rb_supern/d)×100, calculate the corresponding rate of efflux.

KCNQ2/3 = molecular target: T1, KCNQ2/3 (Homo sapiens, UniProt O43525+O43526); test: High throughput atomic absorption Rb+ efflux testing, KCNQ2/3; format: cell-based; conditions: Rb+ efflux by atomic absorption
T1 construct: expressed in transfected cells

Male SD rats = test: Formalin-induced pain model; format: in vivo; conditions: rat
Description: Pharmaceutical composition used: the compound number 42 for the testing group, no medication for the positive control group, which is a blank control model.
Testing method: Male SD rats are randomly divided into control group, ipsilateral treatment group (treatment on the same side) and contralateral treatment group (treatment on the opposite side). After 30 minutes from administration of pharmaceutical compound, administer 20 μl of 20 g/L formalin by subcutaneous injection in foot bottom of back paw on the same side or the opposite side of pharmaceutical compound administration, an occurrence of typical lateral swinging and shaking of rat's tail is deemed as successful in preparing induced-pain model, in the next 60 minutes, observe the rat's licking and biting behavior towards the formalin's injection paw at each 5-min interval.

[2] = Rb+ efflux by atomic absorption, read-out: KCNQ4

| Compound | EC50 [1, 2] | EC50 (KCNQ2/3) | further results |
| --- | --- | --- | --- |
| COc1ccc(-c2c(C(F)(F)F)nn3c(=O)cc(C(F)(F)F)[nH]c23)cc1OC [Compound 2, 3-(3,4-dimethoxyphenyl)-2,5-bis(trifluoromethyl)pyrazolo[1,5-a]pyrimidin-7(4H)-one] | 12.1 ± 0.23 µM | 5.65 ± 3.13 µM |  |
| CCOC(=O)c1c(C(F)(F)F)nn2c(=O)cc(-c3ccccc3)[nH]c12 [Compound 5] | 67.8 ± 2.67 µM | 100 ± 13.3 µM |  |
| O=c1cc(-c2ccc(Cl)cc2)[nH]c2c(-c3ccc(F)cc3)c(C(F)(F)F)nn12 [Compound 8, 2-trifluoromethyl-3-(4-fluorophenyl)-5-(4-chlorophenyl)-pyrazole[1,5-a]pyrimidin-7(4H)-one] | 24.5 ± 4.67 µM | 4.76 ± 1.35 µM |  |
| O=c1cc(-c2cc(F)c(Cl)nc2Cl)[nH]c2c(-c3ccc(F)cc3)c(C(F)(F)F)nn12 [Compound 18, 5-(2,6-dichloro-5-fluoropyrindin-3-yl)-3-(4-fluorophenyl)-2-(trifluoromethyl)pyrazolo[1,5-a]pyrimidin-7(4H)-one] | 120 ± 3.23 µM | 78.7 ± 12.3 µM |  |
| O=c1cc(-c2ccccc2)[nH]c2c(-c3ccccc3)c(C(F)(F)F)nn12 [Compound 19, 3,5-diphenyl-2-(trifluoromethyl)pyrazolo[1,5-a]pyrimidin-7(4H)-one] | 62.1 ± 1.12 µM | 40.2 ± 2.34 µM |  |
| O=c1cc(C(F)(F)F)[nH]c2c(-c3ccccc3)c(C(F)(F)F)nn12 [Compound 20, 2,5 bis(trifluoromethyl)-3-phenylpyrazolo [1,5-a]pyrimidin-7(4H)-one] | 5.87 ± 2.67 µM | 1.28 ± 1.16 µM |  |
| O=c1cc(-c2cc(F)c(Cl)nc2Cl)[nH]c2c(-c3ccc(F)cc3)c(C(F)(F)F)nn12 [Compound 22] | 0.15 ± 0.09 µM | 1.28 ± 0.12 µM |  |
| COc1ccc(-c2c(C(F)(F)F)nn3c(=O)cc(-c4cc(F)c(Cl)nc4Cl)[nH]c23)cc1OC [Compound 23] | 10.3 ± 0.43 µM | 22.1 ± 1.23 µM |  |
| O=c1cc(CN2CCCCC2)[nH]c2c(-c3ccccc3)c(C(F)(F)F)nn12 [Compound 25, 5-(piperidin-1-ylmethyl)-3-phenyl-2-trifluoromethylpyrazolo[1,5-a]pyrimidin-7(4H)-one] | 35 ± 1.21 µM | 85.3 ± 3.45 µM |  |
| O=c1cc(-c2cccc([N+](=O)[O-])c2)[nH]c2c(-c3ccccc3)c(C(F)(F)F)nn12 [Compound 30, 5-(3-nitrophenyl)-3-phenyl-2-trifluoromethylpyrazolo[1,5-a]pyrimidin-7(4H)-one] | 12.2 ± 0.82 µM | 1.26 ± 0.68 µM |  |
| O=C(Cc1ccc(C(F)(F)F)cc1)NCc1cc(=O)n2nc(C(F)(F)F)c(-c3ccccc3)c2[nH]1 [Compound 35] | 44.5 ± 5.28 µM | 138 ± 9.28 µM |  |
| O=c1cc(C(F)(F)F)[nH]c2c(-c3cccc4ccccc34)c(C(F)(F)F)nn12 [Compound 38, 2,5-bis(trifluoromethyl)-3-(naphthalen-1-yl)pyrazolo[1,5-a]pyrimidin-7(4H)-one] | 4.82 ± 3.45 µM | 9.29 ± 26.3 µM |  |
| O=c1cc(CCl)[nH]c2c(-c3cccc4ccccc34)c(C(F)(F)F)nn12 [Compound 39, 5-chloromethyl-3-(naphthalen-1-yl)-2-trifluoromethylpyrazolo[1,5-a]pyrimidin-7(4H)-one] | 21.7 ± 9.72 µM | 5.21 ± 3.21 µM |  |
| O=c1cc(-c2cc(F)c(Cl)nc2Cl)[nH]c2c(-c3cccc4ccccc34)c(C(F)(F)F)nn12 [Compound 42] |  | 0.53 ± 0.28 µM | accumulated time of licking/biting back paw, first phase (Male SD rats; 0-10 min after formalin injection, treatment vs control group, p>0.05): no significant difference; accumulated time of licking/biting back paw, second phase (Male SD rats; 10-60 min after formalin, ipsilateral treatment group vs control group, p<0.05): decrease in accumulated time of licking/biting back paw; activating effect on the CHO cell of the KCNQ4 potassium ion channel ([1]; Rb+ efflux at 0.03, 0.1, 0.6, 1, 3 and 10 μM, FIG. 4): dose-dependent activating effect; EC50 ([1]; Rb+ efflux, 0.03-10 μM, FIG. 4, read-out: EC50): 0.96 ± 0.51 µM |
| COc1ccc(-c2cc(=O)n3nc(C(F)(F)F)c(-c4cccc5ccccc45)c3[nH]2)cc1 [Compound 47, 5-(4-methoxyphenyl)-3-(naphthalen-1-yl)-2-trifluoromethylpyrazolo[1,5-a]pyrimidin-7(4H)-one] | 46.2 ± 2.34 µM | 89.2 ± 24.2 µM |  |
| O=c1cc(-c2cc(F)c(Cl)nc2Cl)[nH]c2c(-c3cccs3)c(C(F)(F)F)nn12 [Compound 60] | 1.14 ± 0.34 µM | 5.32 ± 2.23 µM |  |
| O=c1cc(CN2CCNCC2)[nH]c2c(-c3cccs3)c(C(F)(F)F)nn12 [Compound 61] | 33.3 ± 2.12 µM | 77.7 ± 21.3 µM |  |
| CCOC(=O)c1c(-c2ccc(Cl)cc2)nn2c(=O)cc(C(F)(F)F)[nH]c12 [Compound 73, ethyl 7-oxo-2-(4-chlorophenyl)-5-(trifluoromethyl)-4,7-dihydropyrazolo[1,5-a]pyrimidine-3-carboxylate] | 60.6 ± 3.28 µM | 135 ± 32.2 µM |  |
| O=c1cc(C(F)(F)F)[nH]c2c(-c3c[nH]c4ccccc34)c(-c3ccc(Cl)cc3)nn12 [Compound 77, 2-(4-chlorophenyl)-3-(1H-indol-3-yl)-5-trifluoromethylpyrazolo[1,5-a]pyrimidin-7(4H)-one] | 82.3 ± 19.3 µM | 32.2 ± 9.32 µM |  |
| O=C(OCc1cc(=O)n2nc(C(F)(F)F)c(N3CCNCC3)c2[nH]1)C(F)(F)F [Compound 86, (2-trifluoromethyl-3-piperazinyl-7-oxo-4,7-dihydropyrazolo[1,5-a]pyrimidin-5-yl)methyl-2,2,2-trifluoroacetate] | 50.1 ± 1.34 µM | 98.3 ± 65.2 µM |  |
| O=c1cc(-c2cc(F)c(Cl)nc2Cl)[nH]c2c(-c3cccs3)c(C(Cl)(Cl)Cl)nn12 [Compound 94, 5-(2,6-dichloro-5-fluoropyrido)-3-(thiophen-2-yl)-2-trichloromethyl pyrazolo[1,5-a]pyrimidin-7(4H)-one] | 0.54 ± 0.23 µM | 0.28 ± 0.32 µM |  |
| O=c1cc(CCl)[nH]c2c(-c3cccs3)c(C(F)(F)F)nn12 [Compound 96, 5-chloromethyl-3-(thiophen-2-yl)-2-trifluoromethylpyrazolo[1,5-a]pyrimidin-7(4H)-one] | 5.41 ± 2.29 µM |  |  |
| O=c1cc(-c2cc(F)c(F)cc2F)[nH]c2c(-c3ccccc3)c(C(Cl)(Cl)Cl)nn12 [Compound 99, 3-phenyl-2-trichloromethyl-5-(2,4,5-trifluorophenyl)pyrazolo[1,5-a]pyrimidin-7(4H)-one] | 18.4 ± 1.34 µM | 54.5 ± 32.1 µM |  |
| O=c1cc(CCl)[nH]c2c(-c3cccs3)c(Cl)nn12 [Compound 108, 2-chloro-3-(thiophen-2-yl)-5-chloromethylpyrazolo[1,5-a]pyrimidin-7(4H)-one] | 91.2 ± 33.2 µM | 56.8 ± 19.4 µM |  |
| O=C(NCc1cc(=O)n2nc(Cl)c(-c3ccc4ccccc4c3)c2[nH]1)C(F)(F)F [Compound 116, N-((2-chloro-3-(naphthalen-2-yl)-7-oxo-4,7-dihydropyrazolo[1,5-a]pyrimidin-5-yl)methyl)-2,2,2-trifluoroacetamide] | 43.2 ± 13.7 µM | 210 ± 9.8 µM |  |
